Data published in US7135466B2 (Kirin Beer Kabushiki Kaisha, priority 1999, dated 2006).
Where two headings read alike, the source gives them in different places.

Legend:
[1] = target: T1, PDGF-Ra (Homo sapiens, UniProt P16234); assay: Inhibitory activity against PDGF-Ra phosphorylation by PDGF-AA stimulation using G292; type: cell-based; conditions: for IC50: > means inhibition at indicated concentration not more than 50%, < and << not less than 50%, read-out: PDGF (E) IC50; for inhibition at 0.1 µM: G292, at 100 nM, read-out: PDGF (E) inhibition (%) at 100 nM
T1 construct: host or cells: G-292 human osteosarcoma cells
How it was run: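 G-292 human osteosarcoma cells in 0.1% FBS medium overnight, given compound for 1 hr at 37° C, then PDGF-AA 50 ng/ml for 5 min. Lysates captured on anti-phosphotyrosine (PY-20) plates and probed with anti-PDGF-Ra plus HRP secondary; absorbance at 450 nm.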

[2] = target: T2, c-kit (Homo sapiens, UniProt P10721); assay: Inhibitory activity against c-kit autophosphorylation (MO7e cells, h-SCF); type: cell-based; conditions: for IC50: MO7e cells, read-out: c-kit IC50; for inhibition at 1 µM: Mo7e, at 1000 nM
T2 construct: MO7e (human megakaryocytic leukemia cell line) which had been arrested for 20 hr; endogenous in cells; host or cells: MO7e human megakaryocytic leukemia cell line
How it was run: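 Phospho-c-kit ELISA: plate-bound PY-20 anti-phosphotyrosine captures lysate, anti-c-kit plus peroxidase-labelled secondary antibody detect, read at 450 nm. Lysates come from 20 hr-arrested MO7e cells given compound for 1 hr before a 5 min 50 ng/ml h-SCF stimulus.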

[3] = figure within parentheses in >100( )

T2 sequence (P10721 26-976): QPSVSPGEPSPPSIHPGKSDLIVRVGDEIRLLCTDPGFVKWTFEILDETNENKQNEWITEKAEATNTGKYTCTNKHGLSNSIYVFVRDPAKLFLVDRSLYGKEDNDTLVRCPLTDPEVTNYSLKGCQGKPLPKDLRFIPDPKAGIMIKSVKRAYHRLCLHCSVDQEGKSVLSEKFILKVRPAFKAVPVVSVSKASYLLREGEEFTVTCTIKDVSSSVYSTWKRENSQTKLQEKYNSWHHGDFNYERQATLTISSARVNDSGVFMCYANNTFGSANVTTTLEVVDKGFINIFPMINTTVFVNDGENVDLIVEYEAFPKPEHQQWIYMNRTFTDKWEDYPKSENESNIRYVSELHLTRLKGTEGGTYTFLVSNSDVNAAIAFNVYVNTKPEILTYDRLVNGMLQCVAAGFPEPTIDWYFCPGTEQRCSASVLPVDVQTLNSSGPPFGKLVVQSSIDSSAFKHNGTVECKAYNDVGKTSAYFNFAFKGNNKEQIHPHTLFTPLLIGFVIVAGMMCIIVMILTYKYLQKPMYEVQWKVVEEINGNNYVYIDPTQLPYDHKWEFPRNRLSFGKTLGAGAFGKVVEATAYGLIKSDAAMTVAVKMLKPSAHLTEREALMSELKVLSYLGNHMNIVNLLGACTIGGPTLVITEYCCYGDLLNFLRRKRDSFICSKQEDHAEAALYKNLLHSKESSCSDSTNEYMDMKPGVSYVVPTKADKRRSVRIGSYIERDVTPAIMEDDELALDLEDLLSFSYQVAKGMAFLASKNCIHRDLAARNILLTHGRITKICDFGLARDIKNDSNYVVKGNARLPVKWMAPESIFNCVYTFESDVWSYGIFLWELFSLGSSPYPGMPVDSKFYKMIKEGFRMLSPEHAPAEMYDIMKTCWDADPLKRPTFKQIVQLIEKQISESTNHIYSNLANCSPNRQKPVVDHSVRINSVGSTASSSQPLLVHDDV
T1 sequence (P16234 24-1089): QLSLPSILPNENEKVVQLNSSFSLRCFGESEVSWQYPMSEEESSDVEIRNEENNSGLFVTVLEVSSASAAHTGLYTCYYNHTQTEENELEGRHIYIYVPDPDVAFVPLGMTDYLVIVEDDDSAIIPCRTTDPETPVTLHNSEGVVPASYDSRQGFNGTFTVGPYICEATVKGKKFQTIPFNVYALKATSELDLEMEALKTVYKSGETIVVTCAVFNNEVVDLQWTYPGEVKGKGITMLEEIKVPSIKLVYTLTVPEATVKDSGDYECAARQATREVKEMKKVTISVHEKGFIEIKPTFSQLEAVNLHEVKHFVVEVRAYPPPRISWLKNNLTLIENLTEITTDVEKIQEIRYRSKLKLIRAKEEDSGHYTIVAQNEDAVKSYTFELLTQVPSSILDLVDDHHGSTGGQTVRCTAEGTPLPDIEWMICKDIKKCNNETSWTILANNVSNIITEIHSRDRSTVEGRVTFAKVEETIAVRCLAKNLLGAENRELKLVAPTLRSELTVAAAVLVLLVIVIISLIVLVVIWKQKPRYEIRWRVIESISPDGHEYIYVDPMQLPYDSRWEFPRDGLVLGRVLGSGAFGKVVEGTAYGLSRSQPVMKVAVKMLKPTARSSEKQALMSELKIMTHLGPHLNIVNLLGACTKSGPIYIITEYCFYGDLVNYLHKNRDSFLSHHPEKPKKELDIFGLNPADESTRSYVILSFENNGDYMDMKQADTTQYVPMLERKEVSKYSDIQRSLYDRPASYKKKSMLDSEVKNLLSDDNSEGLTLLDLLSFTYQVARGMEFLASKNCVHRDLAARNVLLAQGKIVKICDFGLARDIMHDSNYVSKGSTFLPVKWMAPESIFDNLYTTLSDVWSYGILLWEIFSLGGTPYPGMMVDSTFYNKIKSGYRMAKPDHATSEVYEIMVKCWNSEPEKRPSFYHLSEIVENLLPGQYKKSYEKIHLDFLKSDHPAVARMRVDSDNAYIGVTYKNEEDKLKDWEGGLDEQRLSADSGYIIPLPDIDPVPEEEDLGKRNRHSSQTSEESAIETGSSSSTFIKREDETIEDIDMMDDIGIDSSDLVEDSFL

IC50 [1] [nM]	IC50 ([2]; 50 ng/ml h-SCF) [nM]	IC50 ([1]; Pharmacological Test Example 1) [nM]	IC50 ([2]; h-SCF 50 ng/ml) [nM]	Compound	other results
> 100	613			CCCC(CCN1CCN(C)CC1)OC(=O)Nc1ccc(Oc2ccnc3cc(OC)c(OC)cc23)c(C)c1C (stereo not drawn) [Example 451, 1-[2-(4-Methylpiperazino)ethyl]butyl N-{4-[(6,7-dimethoxy-4-quinolyl)oxy]-2,3-dimethylphenyl}carbamate]	inhibition at 0.1 µM [1, 3]: 25%
		43		COc1cc2ncnc(Oc3ccc(NC(=O)OC(C)c4ccc(C)cc4)c(Cl)c3)c2cc1OC (stereo not drawn) [Example 136, 1-(4-Methylphenyl)ethyl N-{2-chloro-4-[(6,7-dimethoxy-4-quinazolinyl)oxy]phenyl}carbamate]	inhibition at 1 µM ([2]; figure in parentheses in −( )): 7%
27				COc1cc2nccc(Oc3ccc(NC(=S)NC(=O)N4c5ccccc5CCc5ccccc54)cc3Cl)c2cc1OC [Example 1054, N-{3-Chloro-4-[(6,7-dimethoxy-4-quinolyl)oxy]phenyl}-N′-[10,11-dihydro-5H-dibenzo(b,f)azepin-5-ylcarbonyl]thiourea]	inhibition at 1 µM ([2]; figure in parentheses in −( )): 19%
35	570			COc1cc(Oc2ncnc3cc(OC)c(OC)cc23)ccc1NC(=O)NCCN1CCCCC1 [Example 680, N-{4-[(6,7-Dimethoxy-4-quinazolinyl)oxy]-2-methoxyphenyl}-N′-(2-piperidinoethyl)urea]	
51				COc1cc2nccc(Oc3ccc(NC(=S)NC(=O)CCC4CCCC4)cc3)c2cc1OC [Example 1131, N-(3-Cyclopentylpropanoyl)-N′-{4-[(6,7-dimethoxy-4-quinolyl)oxy]phenyl}thiourea]	IC50 ([2]; h-SCF stimulation): 192 nM
< 10	97			CCN(CCNC(=O)Nc1ccc(Oc2ncnc3cc(OC)c(OC)cc23)cc1)c1cccc(C)c1 [Example 664, N-{4-[(6,7-Dimethoxy-4-quinazolinyl)oxy]phenyl}-N′-[2-(ethyl-3-methylanilino)ethyl]urea]	
16				COc1cc2nccc(Oc3ccc(NC(=S)NC(=O)C4CC4c4ccccc4)cc3)c2cc1OC (stereo not drawn) [Example 1055, N-{4-[(6,7-Dimethoxy-4-quinolyl)oxy]phenyl}-N′-[(2-phenylcyclopropyl)carbonyl]thiourea]	IC50 ([2]; h-SCF stimulation): 312 nM
		13	129	COc1cc2ncnc(Oc3ccc(NC(=O)OC4CCCCC4)c(C)c3C)c2cc1OC [Example 391, Cyclohexyl N-{4-[(6,7-dimethoxy-4-quinazolinyl)oxy]-2,3-dimethylphenyl}carbamate]	
20	321			COc1cc2ncnc(Oc3ccc(N(C)C(=O)OCc4ccccc4Cl)cc3)c2cc1OC [Example 492, 2-Chlorobenzyl N-{4-[(6,7-dimethoxy-4-quinazolinyl)oxy]phenyl}-N-methylcarbamate]	
		< 10	475	COc1cc2nccc(Oc3cc(C)c(NC(=O)OCc4ccc(C(F)(F)F)cc4)cc3C)c2cc1OC [Example 23, 4-(Trifluoromethyl)benzyl N-{4-[(6,7-dimethoxy-4-quinolyl)oxy]-2,5-dimethylphenyl}carbamate]	
3	208			COc1cc2nccc(Oc3ccc(OCCCOc4cccc(C)c4)cc3)c2cc1OC [Example 791, 6,7-Dimethoxy-4-{4-[3-(3-methylphenoxy)propoxy]phenoxy}quinoline]	
< 10	172			COc1cc2ncnc(Oc3ccc(N(C)C(=O)OC4CCCCC4)cc3)c2cc1OC [Example 476, Cyclohexyl N-{4-[(6,7-dimethoxy-4-quinazolinyl)oxy]phenyl}-N-methylcarbamate]	
73	322			COc1cc2nccc(Oc3ccc(NC(=O)NC4CCN(Cc5ccccc5)C4)c(C)c3C)c2cc1OC (stereo not drawn) [Example 604, N-{4-[(6,7-Dimethoxy-4-quinolyl)oxy]-2,3-dimethylphenyl}-N′-[4-(N-benzyl)piperidinyl]urea]	
16				COc1cc2nccc(Oc3ccc(NCCOc4ccccc4OC)cc3C)c2cc1OC [Example 880, N-{4-[(6,7-Dimethoxy-4-quinolyl)oxy]-3-methylphenyl}-N-[2-(2-methoxyphenoxy)ethyl]amine]	IC50 ([2]; h-SCF stimulation): 149 nM
25	835			COc1cc(Oc2ncnc3cc(OC)c(OC)cc23)ccc1NC(=O)NCCN(C(C)C)C(C)C [Example 660, N-[2-(Diisopropylamino)ethyl]-N′-{4-[(6,7-dimethoxy-4-quinazolinyl)oxy]-2-methoxyphenyl}urea]	
9				COc1cc2nccc(Oc3ccc(NC(=S)NC(=O)c4ccccc4I)c(F)c3)c2cc1OC [Example 908, N-{4-[(6,7-Dimethoxy-4-quinolyl)oxy]-2-fluorophenyl}-N′-(2-iodobenzoyl)thiourea]	IC50 ([2]; h-SCF stimulation): 757 nM
> 100				COc1cc2nccc(Oc3ccc(NC(=S)NC(=O)c4ccc(Cl)s4)cc3Cl)c2cc1OC [Example 695, N-{3-Chloro-4-[(6,7-dimethoxy-4-quinolyl)oxy]phenyl}-N′-[(5-chloro-2-thienyl)carbonyl]thiourea]	inhibition at 0.1 µM [1, 3]: 10%; inhibition at 1 µM ([2]; figure within parentheses in −( ) or >1000( )): 37%
39	348			COc1cc2ncnc(Oc3ccc(NC(=O)NC4CCN(Cc5ccccc5C)C4)c(Cl)c3)c2cc1OC (stereo not drawn) [Example 573, N-{2-Chloro-4-[(6,7-dimethoxy-4-quinazolinyl)oxy]phenyl}-N′-[1-(2-methylbenzyl)tetrahydro-1H-3-pyrrolyl]urea]	
		> 100	396	COc1cc2nccc(Oc3cc(C)c(NC(=O)OCc4cccc(C)c4)cc3C)c2cc1OC [Example 254, 3-Methylbenzyl N-{4-[(6,7-dimethoxy-4-quinolyl)oxy]-2,5-dimethylphenyl}carbamate]	inhibition at 0.1 µM ([1]; figure in parentheses in >100( )): 27%
		28	235	COc1cc2nccc(Oc3ccc(NC(=O)OCCCSc4ccc(C(C)(C)C)cc4)c(C)c3C)c2cc1OC [Example 73, 3-{[4-(Tert-butyl)phenyl]sulfanyl}-propyl N-{4-[(6,7-dimethoxy-4-quinolyl)oxy]-2,3-dimethylphenyl}carbamate]	
		27	121	COc1cc2nccc(Oc3cc(C)c(NC(=O)OCCCOc4ccc(Cl)cc4)cc3C)c2cc1OC [Example 29, 3-(4-Chlorophenoxy)propyl N-{4-[(6,7-dimethoxy-4-quinolyl)oxy]-2,5-dimethylphenyl}carbamate]	
		22	83	COc1cc2nccc(Oc3cc(C)c(NC(=O)OCCCSc4cc(C)ccc4C)cc3C)c2cc1OC [Example 171, 3-[(2,5-Dimethylphenyl)sulfanyl]propyl N-{4-[(6,7-dimethoxy-4-quinolyl)oxy]-2,5-dimethylphenyl}carbamate]	
		< 10	261	COc1cc2ncnc(Oc3ccc(NC(=O)OCc4ccc(C(C)(C)C)cc4)cc3)c2cc1OC [Example 60, 4-(Tert-butyl)benzyl N-{4-[(6,7-dimethoxy-4-quinazolinyl)oxy]phenyl}carbamate]	
		21	61	COc1cc2ncnc(Oc3ccc(NC(=O)OCCCOc4ccc(Cl)cc4)c(C)c3C)c2cc1OC [Example 213, 3-(4-Chlorophenoxy)propyl N-{4-[(6,7-dimethoxy-4-quinazolinyl)oxy]-2,3-dimethylphenyl}-carbamate]	
10				COc1cc2nccc(Oc3ccc(NC(=S)NC(=O)Cc4ccccc4)cc3Cl)c2cc1OC [Example 1147, N-{3-Chloro-4-[(6,7-dimethoxy-4-quinolyl)oxy]phenyl}-N′-(2-phenylacetyl)thiourea]	IC50 ([2]; h-SCF stimulation): 105 nM
11	122			CCN(CCNC(=O)Nc1ccc(Oc2ncnc3cc(OC)c(OC)cc23)cc1Cl)c1cccc(C)c1 [Example 665, N-{2-Chloro-4-[(6,7-dimethoxy-4-quinazolinyl)oxy]phenyl}-N′-[2-(ethyl-3-methylanilino)ethyl]urea]	
< 10				COc1cc2nccc(Oc3ccc(NC(=S)NC(=O)N4CCCC4)cc3)c2cc1OC [Example 1044, N-{4-[(6,7-Dimethoxy-4-quinolyl)oxy]phenyl}-N′-tetrahydro-1H-1-pyrrolylcarbonylthiourea]	IC50 ([2]; h-SCF stimulation): 136 nM
31	67			COc1cc2nccc(Oc3ccc(NC(=O)OC4CCOCC4)c(C)c3C)c2cc1OC [Example 472, Tetrahydro-2H-4-pyranyl N-{4-[(6,7-dimethoxy-4-quinolyl)oxy]-2,3-dimethylphenyl}carbamate]	

Compound	IC50 [1] [nM]	IC50 ([2]; 50 ng/ml h-SCF) [nM]	IC50 ([1]; Pharmacological Test Example 1) [nM]	IC50 ([2]; h-SCF 50 ng/ml) [nM]	other results
COc1cc2nccc(Oc3ccc(NC(=O)Oc4ccccc4OC)cc3)c2cc1OC [Example 260, 2-Methoxyphenyl N-{4-[(6,7-dimethoxy-4-quinolyl)oxy]phenyl}carbamate]			6	180	
COc1cc2nccc(Oc3cc(C)c(NC(=O)Oc4ccccc4C)cc3C)c2cc1OC [Example 289, 2-Methylphenyl N-{4-[(6,7-dimethoxy-4-quinolyl)oxy]-2,5-dimethylphenyl}carbamate]			< 10	328	
